We go through one compound from PMC12703733, “Probing Guanidino Pendant or Bridged Groups in Cyclic Antimicrobial Peptides Derived from Temporin L: A Strategy to Improve Efficacy against Gram-Negative Bacteria” (Journal of Medicinal Chemistry, 2025).

Values after ≈ are worked out from the molar mass of the structure shown. Like-named read-outs stand apart in the source and are kept apart here. Marks after values point to notes of the source that are not given here. Bridge positions count the residues as written; N and C are the ends. Square brackets hold non-standard residues; d marks the D form. Peptide text beside a SMILES is read from it.

Series [1] relates to Gram-positive bacteria tested. Briefly: MIC panel, Gram-positive strains (geometric mean, range). The following applies: geometric mean of the MICs against Gram-positive bacteria tested. Type of series: cell-based. The method, then:
(§1) The antimicrobial efficacy of the TLcyc analogues was assessed against a representative panel of Gram-positive and Gram-negative bacterial strains, by determining their minimal inhibitory concentrations (MIC), as summarized in Table . To provide an integrated measure of antimicrobial potency, we calculated the geometric mean (GM) of MIC values across all strains (GMall), as well as separately for Gram-positive (GMGram+) and Gram-negative (GMGram–) bacteria.
(§2) Bacterial strains used in this study were the Gram-positive S. aureus ATCC 25923, S. epidermidis ATCC 12228, B. megaterium BM11, S. agalactiae ATCC 27591, E. faecalis ATCC 29212 and the Gram-negative E. coli ATCC 25922, P. aeruginosa ATCC 27853, A. baumannii ATCC 19606, E. coli D21 and P. aeruginosa PAO1. […] Bacterial cells in the mid log phase were diluted in Muller Hinton (MH) at a concentration of 2 × 10^6 cell/mL. Aliquots of 50 μL of this bacterial suspension were added to 50 μL of MH containing serial 2-fold dilutions of the peptides (from 100 to 0.19 μM) in the wells a 96-well plate. Ciprofloxacin was used as antibiotic control. The plate was then incubated at 37 °C. MICs were obtained from three identical readings of four independent experiments.

The next series concerns A. baumannii ATCC 19606. The arrangement: method as in Bellavita et al. The following applies: previously determined for peptide 12, ref Bellavita et al., cited from earlier work.
Series [2] concerns Gram-negative bacteria tested. Briefly: MIC panel, Gram-negative strains (geometric mean). The series is classed as cell-based. The following applies: geometric mean of the MICs against Gram-negative bacteria tested. The method, then:
as §1, §2

For the next series, the system named is P. aeruginosa ATCC 27853. Also noted: method as in Bellavita et al. Particulars: previously determined for peptide 12, ref Bellavita et al.; cited from earlier work.
In another series the test system is S. aureus ATCC 25923. Also noted: method as in Bellavita et al. Particulars: previously determined for peptide 12, ref Bellavita et al., cited from earlier work.
Another series concerns E. faecalis ATCC 29212. The series can be described thus: microbe, parasite or virus in culture. Type of series: cell-based. The following applies: ATCC 29212. The method, boiled down: (§3)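 Inoculum of 2 × 10^6 cell/mL (mid-log, Mueller Hinton broth) is incubated at 37 °C with test compound; ciprofloxacin serves as antibiotic control.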
The next series relates to E. coli D21. The series can be described thus: microbe, parasite or virus in culture. Type of series: cell-based. The following applies: D21. The method, boiled down: as §3
A further series deals with P. aeruginosa PAO1. The series can be described thus: microbe, parasite or virus in culture. The series is classed as cell-based. The following applies: PAO1. The method, boiled down: as §3
The next series concerns S. agalactiae ATCC 27591. The series can be described thus: microbe, parasite or virus in culture. The series is classed as cell-based. The following applies: ATCC 27591. The method, boiled down: as §3
The subject of a further series is E. coli ATCC 25922. Also noted: method as in Bellavita et al. Particulars: previously determined for peptide 12, ref Bellavita et al., cited from earlier work.
For series [3], the system named is S. epidermidis ATCC 12228. Also noted: method as in Bellavita et al. The following applies: previously determined for peptide 12, ref Bellavita et al., cited from earlier work.
The next series has as its system B. megaterium BM11. Also noted: method as in Bellavita et al. The following applies: previously determined for peptide 12, ref Bellavita et al., cited from earlier work.
For another series, the system named is all bacteria tested. The series can be described thus: MIC panel, geometric mean over all strains. The series is classed as cell-based. The following applies: geometric mean of the MICs against all bacteria tested. The method, then:
as §1, §2

Details of series [4]: method as in Bellavita et al. The following applies: CD in H2O; previously determined for peptide 12; ref Bellavita et al.; cited from earlier work.

For the compound `CC[C@H](C)[C@H](NC(=O)[C@H](CCCNC(=N)N)NC(=O)[C@@H]1CCC(=O)NCCCC[C@H](NC(=O)[C@H](Cc2ccccc2)NC(=O)[C@H](Cc2c[nH]c3ccccc23)NC(=O)[C@@H]2CCCN2C(=O)[C@@H](NC(=O)[C@@H](N)Cc2ccccc2)C(C)C)C(=O)N[C@@H](CCCCN)C(=O)N[C@@H](Cc2ccccc2)C(=O)N[C@H](CC(C)C)C(=O)N1)C(=O)N[C@@H](CC(C)C)C(N)=O` [Peptide 1, FVPWF[KKFlE]RIL] (H-FVPWFKKF[dL]ERIL-NH2; lactam 6-10), the “geometric mean GMGram+” value in [1] is 3.12 µM. Also, the MIC in the series with A. baumannii ATCC 19606 (listed as 1 (TL cyc )) is 3.12 ^a μM; in the series with A. baumannii ATCC 19606 it was 3.12 µM (≈ 5.32 µg/mL); in the series on P. aeruginosa ATCC 27853, 100 ^a μM; in the series on S. aureus ATCC 25923 (listed as 1 (TL cyc )) it was 3.12 ^a μM; with S. aureus ATCC 25923, 3.12 µM (≈ 5.32 µg/mL); in the series on E. faecalis ATCC 29212, 6.25 µM (≈ 10.7 µg/mL). Besides, the MIC in the series with E. coli D21 is 12.5 µM (≈ 21.3 µg/mL); with P. aeruginosa PAO1, 25 µM (≈ 42.6 µg/mL); against S. agalactiae ATCC 27591 it was 3.12 µM (≈ 5.32 µg/mL); in the series with E. coli ATCC 25922 (listed as 1 (TL cyc )), 25 ^a μM; in the series on E. coli ATCC 25922, 25 µM (≈ 42.6 µg/mL); in [3] (listed as 1 (TL cyc )), 3.12 ^a μM. In addition, the MIC in [3] is 3.12 µM (≈ 5.32 µg/mL); in the series with B. megaterium BM11 (listed as 1 (TL cyc )), 1.56 ^a μM; in the series with B. megaterium BM11, 1.56 µM (≈ 2.66 µg/mL). Moreover, the “geometric mean GMGram–” value in series [2] was found to be 18.9 µM. For the same compound, the “geometric mean GMall” value in the series with all bacteria tested came out at 7.67 µM. Also, the “Content in water (%) random” value in [4] was 55%. The “Content in water (%) α-helix” value in [4] is recorded as 2%. The “Content in water (%) β-strand” value in series [4] is 41%.
